In patent US20160333071A1 (THE TRUSTEES OF COLUMBIA UNIVERSITY IN THE CITY OF NEW YORK, priority 2014, published 2016):

Test system: endocardial tissue slabs (incorporating the construct injection site)
Set-up: species or system dog

| Structure (SMILES) | effect on rate of isoproterenol-enhanced rhythms |
| --- | --- |
| NC1=N[C@H](O)[C@H]2[C@H]3O[C@]4(O)O[C@@H]([C@@H](O)[C@@]2(N1)[C@@H]4O)[C@]3(O)CO [Tetrodotoxin, tetrodotoxin] | reductions in rate |
| COc1cc2c(cc1OC)CC(=O)N(CCCN(C)C[C@H]1Cc3cc(OC)c(OC)cc31)CC2 [ivabradine] | reductions in rate |
